The record followed here is patent publication US4863918A, “Enamine quaternary compounds, methods of making and their use as muscle relaxants” (BOC, Inc., priority 1988, dated 1989).

The subject of this test is paw twitch. As to the kind of experiment: Twitch depression (muscle relaxant effect) in anesthetized rabbits; rabbit paw twitch. Conditions: rabbit paw twitch, at indicated dose. It counts as in vivo, New Zealand White rabbits. Here is the method: [The procedure below names another organism; the source lists this organism under the same test.] Mongrel dogs were injected with 50 mg/kg of pentobarbital until the onset of anesthesia as determined by the eyeblink reflex test. The injectable solutions prepared above were administered intravenously to the anesthesized mongrel dogs and measurements were made of the muscle relaxant effect including maximum twitch depression, onset, duration and recovery time in a clinically known manner. Each of the subjects were compared with a control animal receiving an injection of distilled water.
The same compound of the present invention as in
A number of compounds in accordance with the present invention were tested for their neuromuscular blockade Properties. Specifically, the acid addition salts of the compounds were dissolved in sterile water for injection.

In turn, `CCOC(=O)C[N+](CC)=C1C=C(N2CCC3(CC2)OCC2(CO3)COC3(CCN(C4=CC(=[N+](CC)CC(=O)OCC)CC(C)(C)C4)CC3)OC2)CC(C)(C)C1` had an Onset (Table VI) of 39 s.

Molecule `COC1C[N+](=C2C=C(N3CCCC4(C3)OCC3(CO4)COC4(CCCN(C5=CC(=[N+]6CCC(OC)(OC)C(OC)C6)CC(C)(C)C5)C4)OC3)CC(C)(C)C2)CCC1(OC)OC` (stereo not shown) yielded an Onset (Table VII) of 44.4 s.

Where the note is “Table VIII”, `CC1C[N+](=C2C=C(N3CCCC4(CC3)OCC3(CO4)COC4(CCCN(C5=CC(=[N+]6CCC7(OCCO7)C(C)C6)CC(C)(C)C5)CC4)OC3)CC(C)(C)C2)CCC12OCCO2` (stereo not shown) [No. 11] registered an Onset of 62.1 s.

The molecule `CC1(C)CC(N2CCCC3(C2)OCC2(CO3)COC3(CCCN(C4=CC(=[N+]5CCCC6(CC5)OCCO6)CC(C)(C)C4)C3)OC2)=CC(=[N+]2CCCC3(CC2)OCCO3)C1` (stereo not shown) [No. 13] had an Onset (Table VII) of 36.5 s.

As for `CC1(C)CC(N2CCCC3(CC2)OCC2(CO3)COC3(CCCN(C4=CC(=[N+]5CCCCCC5)CC(C)(C)C4)CC3)OC2)=CC(=[N+]2CCCCCC2)C1` (stereo not shown) [No. 13], the Onset (Table VIII) was 88.3 s.

Molecule `CC1(C)CC(N2CCCC3(CC2)OCC2(CO3)COC3(CCCN(C4=CC(=[N+]5CCCC6(C5)OCCO6)CC(C)(C)C4)CC3)OC2)=CC(=[N+]2CCCC3(C2)OCCO3)C1` (stereo not shown) [No. 14] gave an Onset (Table VIII) of 44.5 s.

Where the note is “Table VII”, `CC[N+](CC1CC1)=C1C=C(N2CCCC3(C2)OCC2(CO3)COC3(CCCN(C4=CC(=[N+](CC)CC5CC5)CC(C)(C)C4)C3)OC2)CC(C)(C)C1` (stereo not shown) [No. 17] displayed an Onset of 39.3 s.

In the case of `CC1CCC[N+](=C2C=C(N3CCCC4(C3)OCC3(CO4)COC4(CCCN(C5=CC(=[N+]6CCCC(C)C6)CC(C)(C)C5)C4)OC3)CC(C)(C)C2)C1` (stereo not shown) [No. 20], for the setting “Table VII”, the Onset was found to be 44.9 s.

For the setting “Table VII”, `CC[N+](CCC1OCCO1)=C1C=C(N2CCCC3(C2)OCC2(CO3)COC3(CCCN(C4=CC(=[N+](CC)CCC5OCCO5)CC(C)(C)C4)C3)OC2)CC(C)(C)C1` (stereo not shown) [No. 21] came in with an Onset of 33.3 s.

Turning to `CC1(C)CC(N2CCC3(CC2)OCC2(CO3)COC3(CCN(C4=CC(=[N+](Cc5ccco5)Cc5ccco5)CC(C)(C)C4)CC3)OC2)=CC(=[N+](Cc2ccco2)Cc2ccco2)C1` [compound 11], the Onset (Table VI) turned out to be 77.3 s.

`CC[N+](Cc1cccs1)=C1C=C(N2CCC3(CC2)OCC2(CO3)COC3(CCN(C4=CC(=[N+](CC)Cc5cccs5)CC(C)(C)C4)CC3)OC2)CC(C)(C)C1` [compound 13] showed an Onset (Table VI) of 88.1 s.

`CC1(C)CC(N2CCC3(CC2)OCC2(CO3)COC3(CCN(C4=CC(=[N+]5CCCC6(CC5)OCCO6)CC(C)(C)C4)CC3)OC2)=CC(=[N+]2CCCC3(CC2)OCCO3)C1` [compound 14] gave an Onset (Table VI) of 52.8 s.

Under “Table VI”, `CC1(C)CC(N2CCC3(CC2)OCC2(CO3)COC3(CCN(C4=CC(=[N+]5CC6CCC(CC6)C5)CC(C)(C)C4)CC3)OC2)=CC(=[N+]2CC3CCC(CC3)C2)C1` [compound 17] registered an Onset of 49.6 s.

Take `CC1(C)CC(N2CCC3(CC2)OCC2(CO3)COC3(CCN(C4=CC(=[N+]5CCCCCCC5)CC(C)(C)C4)CC3)OC2)=CC(=[N+]2CCCCCCC2)C1` [compound 20]: for the setting “Table VI”, the Onset amounted to 57.5 s.

In turn, `CCC[N+](CC1CC1)=C1C=C(N2CCC3(CC2)OCC2(CO3)COC3(CCN(C4=CC(=[N+](CCC)CC5CC5)CC(C)(C)C4)CC3)OC2)CC(C)(C)C1` [compound 21] registered an Onset (Table VI) of 47.7 s.

For `CC1(C)CC(N2CCC3(CC2)OCC2(CO3)COC3(CCN(C4=CC(=[N+]5CCCCCC5)CC(C)(C)C4)CC3)OC2)=CC(=[N+]2CCCCCC2)C1` [compound 24], the Onset (Table VI) was 64 s.

Where the note is “Table VI”, `CC1CC[N+](=C2C=C(N3CCC4(CC3)OCC3(CO4)COC4(CCN(C5=CC(=[N+]6CCC(C)CC6)CC(C)(C)C5)CC4)OC3)CC(C)(C)C2)CC1` (stereo not shown) [compound 28] registered an Onset of 49.9 s.

For the molecule `CC1(C)CC(N2CCC3(CC2)OCC2(CO3)COC3(CCN(C4=CC(=[N+]5CCCCCC5)CC(C)(C)C4)CC3)OC2)=CC(=[N+]2CCCCCC2)C1` [compound 29], the Onset (Table VI) came out at 56.1 s.

`CC1(C)CC(N2CCC3(CC2)OCC2(CO3)COC3(CCN(C4=CC(=[N+]5CCC(c6ccccc6)CC5)CC(C)(C)C4)CC3)OC2)=CC(=[N+]2CCC(c3ccccc3)CC2)C1` (stereo not shown) [compound 31] returned an Onset (Table VI, in s) of 105.6.

Take `CC1CCC[N+](=C2C=C(N3CCC4(CC3)OCC3(CO4)COC4(CCN(C5=CC(=[N+]6CCCC(C)C6)CC(C)(C)C5)CC4)OC3)CC(C)(C)C2)C1` (stereo not shown) [compound 33]: the Onset (Table VI) is 53.1 s.

In turn, `C=CC[N+](CC=C)=C1C=C(N2CCC3(CC2)OCC2(CO3)COC3(CCN(C4=CC(=[N+](CC=C)CC=C)CC(C)(C)C4)CC3)OC2)CC(C)(C)C1` [compound 35] displayed an Onset (Table VI) of 61.9 s.

In turn, `C[N+](CCc1ccccc1)=C1C=C(N2CCC3(CC2)OCC2(CO3)COC3(CCN(C4=CC(=[N+](C)CCc5ccccc5)CC(C)(C)C4)CC3)OC2)CC(C)(C)C1` [compound 36] registered an Onset (Table VI) of 81.9 s.

The molecule `CC1=C(N2CCC3(CC2)OCC2(CO3)COC3(CCN(C4=C(C)C(=[N+]5CCCCCC5)CC4)CC3)OC2)CCC1=[N+]1CCCCCC1` [compound 38] yielded an Onset (Table VI, in s) of 100.0.

The molecule `CC1(C)CC(N2CCC3(CC2)OCC2(CO3)COC3(CCN(C4=CC(=[N+]5CC6(C)CC5CC(C)(C)C6)CC(C)(C)C4)CC3)OC2)=CC(=[N+]2CC3(C)CC2CC(C)(C)C3)C1` [compound 39] registered an Onset (Table VI) of 75.9 s.

Where the note is “Table VI”, `CC[N+](CC)=C1C=C(N2CCC3(CC2)OCC2(CO3)COC3(CCN(C4=CC(=[N+](CC)CC)CC(C)C4)CC3)OC2)CC(C)C1` (stereo not shown) [compound 41] gave an Onset of 51 s.

As to `CC1CC(N2CCC3(CC2)OCC2(CO3)COC3(CCN(C4=CC(=[N+]5CCCC6(CC5)OCCO6)CC(C)C4)CC3)OC2)=CC(=[N+]2CCCC3(CC2)OCCO3)C1` (stereo not shown) [compound 42], the Onset (Table VI) is 75.6 s.

For the molecule `CC1(C)CC(N2CCC3(CC2)OCC2(CO3)COC3(CCN(C4=CC(=[N+]5CCCCCC5)CC(C)(C)C4)CC3)OC2)=CC(=[N+]2CCCCCC2)C1` [compound 44], under “Table VI”, the Onset came to 67.2 s.

`CC1(C)CC(N2CCC3(CC2)OCC2(CO3)COC3(CCN(C4=CC(=[N+]5CCCC5)CC(C)(C)C4)CC3)OC2)=CC(=[N+]2CCCC2)C1` [compound 46]: the Onset (Table VI) was found to be 62.8 s.

For the setting “Table VI, in s”, `CC1(C)CC(N2CCC3(CC2)OCC2(CO3)COC3(CCN(C4=CC(=[N+]5CCc6ccccc6C5)CC(C)(C)C4)CC3)OC2)=CC(=[N+]2CCc3ccccc3C2)C1` [compound 48] showed an Onset of 113.5.

In turn, `CC1(C)CC(N2CCC3(CC2)OCC2(CO3)COC3(CCN(C4=CC(=[N+]5CCOCC5)CC(C)(C)C4)CC3)OC2)=CC(=[N+]2CCOCC2)C1` [compound 49] showed an Onset (Table VI) of 58.8 s.

On to `CC1(C)CC(N2CCC3(CC2)OCC2(CO3)COC3(CCN(C4=CC(=[N+]5CCCCC5)CC(C)(C)C4)CC3)OC2)=CC(=[N+]2CCCCC2)C1` [compound 50], for which the Onset (Table VI) came out at 59.9 s.

Consider `CC1(C)CC(N2CCC3(CC2)OCC2(CO3)COC3(CCN(C4=CC(=[N+](CC5CC5)CC(F)(F)F)CC(C)(C)C4)CC3)OC2)=CC(=[N+](CC2CC2)CC(F)(F)F)C1` [compound 51], for which the Onset (Table VI) came to 51 s.

In the case of `CC1(C)CC(N2CCC3(CC2)OCC2(CO3)COC3(CCN(C4=CC(=[N+](CC5CC5)CC5CC5)CC(C)(C)C4)CC3)OC2)=CC(=[N+](CC2CC2)CC2CC2)C1` [compound 52], where the note is “Table VI”, the Onset was found to be 48.5 s.

`CC[N+](CCC1OCCO1)=C1C=C(N2CCC3(CC2)OCC2(CO3)COC3(CCN(C4=CC(=[N+](CC)CCC5OCCO5)CC(C)(C)C4)CC3)OC2)CC(C)(C)C1` [compound 53] had an Onset (Table VI) of 58.6 s.
